Measurements: patent publication US10085957B2, “Benzoic acid compounds for reducing uric acid” (Wellstat Therapeutics Corporation, priority 2010, dated 2018)
Like-named read-outs stand apart in the source and are kept apart here.

Molecular target: T1, human URAT1 (Homo sapiens, UniProt Q96S37)
T1 construct: The full-length hURAT1 cDNA was obtained from the vector pCMV6-XL5 and subcloned into the expression vector pCMV6-Neo
T1 sequence (Q96S37 1-553): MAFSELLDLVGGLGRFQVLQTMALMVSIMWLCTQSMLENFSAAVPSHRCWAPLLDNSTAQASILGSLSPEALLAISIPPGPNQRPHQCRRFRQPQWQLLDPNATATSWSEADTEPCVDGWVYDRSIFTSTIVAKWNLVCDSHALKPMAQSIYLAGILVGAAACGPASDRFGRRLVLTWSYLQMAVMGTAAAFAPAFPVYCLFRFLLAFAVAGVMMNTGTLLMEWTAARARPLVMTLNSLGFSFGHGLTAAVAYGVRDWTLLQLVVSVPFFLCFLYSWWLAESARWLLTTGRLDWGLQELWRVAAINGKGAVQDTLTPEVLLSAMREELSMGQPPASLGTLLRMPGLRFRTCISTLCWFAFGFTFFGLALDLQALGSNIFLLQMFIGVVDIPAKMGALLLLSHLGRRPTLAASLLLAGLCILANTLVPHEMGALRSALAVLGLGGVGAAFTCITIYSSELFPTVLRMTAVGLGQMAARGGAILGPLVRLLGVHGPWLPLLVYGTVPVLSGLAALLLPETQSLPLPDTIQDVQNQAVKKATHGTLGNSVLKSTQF
Assay: URAT1 inhibition assay: [8-14C] urate uptake in hURAT1-HEK cells
Format: cell-based
Description: An in vitro URAT1 assay is useful for identifying compounds with potential activity in lowering serum uric acid. A suitable assay involves transfection of cells (e.g. human embryonic kidney cells; “HEK”) with a vector encoding human URAT1, followed by determination of the ability of transfected cells to take up radiolabeled uric acid. The activity of compounds as URAT1 inhibitors is evaluated by their ability to block uric acid uptake by transfected cells.
Plasmid vector pCMV6-XL5 containing hURAT1 cDNA (Cat. No. SC125624) and the expression vector pCMV6-Neo (Cat. No.pCMVNEO) were obtained from OriGene Technologies, Inc. The full-length hURAT1 cDNA was obtained from the vector pCMV6-XL5 and subcloned into the expression vector pCMV6-Neo to create the hURAT1 expression plasmid pCMV6-hURAT1. The sequences were verified by automatic DNA sequencing.
Human embryonic kidney 293 (HEK) cells (ATTCC, Cat No. CRL-1573) were cultured in EMEM supplemented with 10% FBS and 2 mM L-glutamine and incubated at 37° C. and 5% CO2. For transfection experiments, cells were plated on 60 mm dishes in 1 ml media per dish. After an 18-24 hour incubation, cells were transfected with plasmid pCMV6-hURAT1 or the expression vector pCMV6-Neo, using the Lipofectin trasfection agent following the manufacturer's instructions (Invitrogen, Cat.No. 18292). After transfection cells were grown in EMEM media for 72 hours and then by adding lmg/ml Geneticin (GIBCO, Cat. No 10131) stable transfectants were selected. Stable transfectants expressing hURAT1 (herein after referred as hURAT1-HEK cells) or cells having only the expression vector pCMV6-Neo (herein after referred as mock-HEK cells) were verified using reverse transcription polymerase chain reaction (RT-PCR) methods.
hURAT1-HEK cells and mock-HEK cells were plated in poly-D-Lysine Cell culture 24 well plates (Becton Dickinson, Cat. No. 354414) at a concentration of 3×10^5 in EMEM medium and incubated overnight. Reaction solutions containing the [8-^14C] urate (55 mCi/mmol) at a final concentration of 50 μM were prepared with or without test compounds in Hanks' balanced salt solution (HBSS) containing 125 mM sodium gluconate, 4.8 mM potassium gluconate, 1.3 mM calcium, 5.6 mM glucose, 1.2 mM magnesium sulfate, 1.2 mM KH2PO4 and 25 mM HEPES (pH7.4). Before the uptake assay started, the culture medium was removed and the cells were incubated for 5 min in 0.6 ml of HBSS. After that HBSS was removed, the prepared reaction solutions were added into each well and incubated for 5 min at room temperature. Then the reaction solution was removed, cells were washed twice with 0.6 ml of cold HBSS and lysed with 0.2 ml of 0.1 M NaOH for 20 min. The cell lysates were transferred into the scintillation vials containing 1 ml of scintillation fluid (Opti Phase SuperMIX, PerkinElmer, Cat No. 1200-439) and the radioactivity was counted in the Microbeta counter (1450, Wallac Jet, PerkinElmer). Test compounds were dissolved in DMSO and the same concentration of DMSO was added into the wells of mock-HEK cells and the hURAT1-HEK cells that didn't contain test compounds. For each test compound, the uptake assay was performed 2 times and carried out in triplicate. Urate uptake of the cells for each test condition was presented as the average percent inhibition in comparison to the DMSO control. The radioactivity values obtained for the wells that contained DMSO were taken as 100% uptake of the cells. The observed concentration-percent inhibition data were fitted to a sigmoidal concentration-effect model, where: % Inhibition=(100*Conc^Slope)/(IC50^Slope+Conc^Slope)
IC50 and slope estimates with their 95% confidence limits were determined by a non-linear, least-squares regression analysis using the Data Analysis Toolbox™ (MDL Information Systems, San Leandro, Calif., USA). […]

[1] = 10 μM test compound, 14C urate uptake in hURAT1-HEK cells, vs DMSO control, read-out: % of inhibition (at 10 μM)

SMILES | inhibition at 10 µM [1] [%] | other results
COc1ccc(C(=O)O)cc1OCc1c(C)cccc1C [Compound FC, 3-(2,6-dimethylbenzyloxy)-4-methoxybenzoic acid] | 89.2 | inhibition at 0.05 µM (concentration 0.05 μM, urate uptake in hURAT1-HEK cells): 7.08%; inhibition at 0.1 µM (concentration 0.1 μM, urate uptake in hURAT1-HEK cells): -1.08%; inhibition at 0.5 µM (concentration 0.5 μM, urate uptake in hURAT1-HEK cells): 34.6%; inhibition at 1 µM (concentration 1 μM, urate uptake in hURAT1-HEK cells): 49.8%; inhibition at 10 µM (concentration 10 μM, urate uptake in hURAT1-HEK cells (Table 2), read-out: % of inhibition Avg.): 93.3%; inhibition at 100 µM (concentration 100 μM, urate uptake in hURAT1-HEK cells): 97.8%
Cc1ccc(CC(=O)O)cc1OCc1c(C)cccc1C [EH, 2-(3-(2,6-Dimethylbenzyloxy)-4-methylphenyl)acetic acid, reference compound] | 95.6 | 
Cc1cccc(C)c1COc1cc(C(=O)O)ccc1[N+](=O)[O-] [FB, 3-(2,6-dimethylbenzyloxy)-4-nitrobenzoic acid] | 81 | 

The next lines start with results.

inhibition at 10 µM [1] [%] | SMILES | other results
83.2 | Cc1ccc(C(=O)O)cc1OCc1c(C)cccc1C [FA, 3-(2,6-dimethylbenzyloxy)-4-methylbenzoic acid] | 
68.1 | Cc1cccc(C)c1COc1cc(C(=O)O)ccc1F [FD, 3-(2,6-dimethylbenzyloxy)-4-fluorobenzoic acid] | 
10 | Cc1cccc(C)c1COc1cc(C(=O)O)ccc1N [FE, 4-amino-3-(2,6-dimethylbenzyloxy)benzoic acid] | 
